This experiment concerns the target PARP1 (Gallus gallus, UniProt P26446).

As a reminder, the IC50 is the concentration at which inhibition is half-maximal. Lower therefore signals inhibition by little substance.

PARP1, sequence (P26446 whole entry): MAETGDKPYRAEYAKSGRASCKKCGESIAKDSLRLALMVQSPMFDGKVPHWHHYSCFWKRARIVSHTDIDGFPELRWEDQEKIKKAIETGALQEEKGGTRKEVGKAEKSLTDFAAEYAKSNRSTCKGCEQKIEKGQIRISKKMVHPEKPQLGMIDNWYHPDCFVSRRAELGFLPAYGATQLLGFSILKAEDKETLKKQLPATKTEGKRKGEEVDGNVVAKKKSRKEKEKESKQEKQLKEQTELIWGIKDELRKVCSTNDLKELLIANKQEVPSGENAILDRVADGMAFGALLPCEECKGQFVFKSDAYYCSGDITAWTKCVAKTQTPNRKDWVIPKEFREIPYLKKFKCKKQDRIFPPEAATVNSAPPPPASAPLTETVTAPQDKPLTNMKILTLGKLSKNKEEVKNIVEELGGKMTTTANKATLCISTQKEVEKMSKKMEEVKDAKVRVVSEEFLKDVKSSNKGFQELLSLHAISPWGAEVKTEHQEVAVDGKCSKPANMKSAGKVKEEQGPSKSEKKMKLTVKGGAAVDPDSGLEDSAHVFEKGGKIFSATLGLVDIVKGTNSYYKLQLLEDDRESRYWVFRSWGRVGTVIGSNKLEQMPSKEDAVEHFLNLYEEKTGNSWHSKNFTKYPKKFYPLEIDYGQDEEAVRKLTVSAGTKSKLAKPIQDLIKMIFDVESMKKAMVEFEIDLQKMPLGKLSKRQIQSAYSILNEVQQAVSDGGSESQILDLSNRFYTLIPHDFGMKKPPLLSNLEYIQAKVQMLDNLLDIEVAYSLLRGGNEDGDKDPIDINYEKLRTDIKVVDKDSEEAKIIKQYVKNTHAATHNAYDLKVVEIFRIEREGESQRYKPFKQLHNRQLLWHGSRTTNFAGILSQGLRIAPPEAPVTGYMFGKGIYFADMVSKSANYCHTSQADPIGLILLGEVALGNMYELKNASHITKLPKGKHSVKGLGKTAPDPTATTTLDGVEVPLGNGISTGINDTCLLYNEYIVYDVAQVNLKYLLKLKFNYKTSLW

`NC(=O)c1cccc2cn(-c3ccc([C@@H]4CCCNC4)cc3)nc12` [MK-4827]: half-maximal inhibition (IC50) was put at 50.5 nM. Next, `C[C@]1(c2nc3c(C(N)=O)cccc3[nH]2)CCCN1` [veliparib]: 10.5 nM.

(Values after PMC3528345 (Cancer research, 2012).)
